This passage reports inhibition results from patent US20100137313A1 (ASTRAZENECA AB, priority 2008, published 2010).

Sequence of S. pneumoniae Topoisomerase IV ATPase (ParE) (Q59961 whole entry): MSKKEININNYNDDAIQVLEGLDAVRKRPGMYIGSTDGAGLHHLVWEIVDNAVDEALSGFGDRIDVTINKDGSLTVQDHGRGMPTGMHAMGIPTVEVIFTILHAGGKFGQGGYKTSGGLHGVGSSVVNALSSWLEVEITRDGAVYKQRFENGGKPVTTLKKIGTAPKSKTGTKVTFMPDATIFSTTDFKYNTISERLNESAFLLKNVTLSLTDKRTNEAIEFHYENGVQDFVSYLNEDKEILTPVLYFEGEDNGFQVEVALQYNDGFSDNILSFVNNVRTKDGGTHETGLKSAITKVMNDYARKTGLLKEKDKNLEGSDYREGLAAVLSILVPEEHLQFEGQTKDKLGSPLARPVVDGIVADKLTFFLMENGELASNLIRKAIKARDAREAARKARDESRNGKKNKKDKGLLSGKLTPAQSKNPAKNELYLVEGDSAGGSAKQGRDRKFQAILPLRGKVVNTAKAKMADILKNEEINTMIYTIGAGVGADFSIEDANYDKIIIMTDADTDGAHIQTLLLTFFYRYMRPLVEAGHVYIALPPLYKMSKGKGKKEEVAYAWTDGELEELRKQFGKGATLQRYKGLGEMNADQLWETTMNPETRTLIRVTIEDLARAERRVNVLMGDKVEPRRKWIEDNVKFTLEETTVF

For the assay, the target named is S. pneumoniae Topoisomerase IV ATPase (ParE) (Streptococcus pneumoniae serotype 4, UniProt Q59961). The assay can be described thus: S. pneumoniae Topoisomerase IV ATPase inhibition. It counts as biochemical. As to conditions: values marked * are an average of two or more data points, read-out: % Inh (13 μM) of S. pneumoniae Topoisomerase IV ATPase. A digest of the protocol:
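Phosphate-release ATPase assay: 1.25 nM ParE, 160 μM ATP, DNA-stimulated. Quench with malachite green/molybdate in 1 M HCl, read 650 nm; IC50 from 10-point dose series.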
Take `COCC(COC)Nc1nc(Nc2ccc(F)c(Cl)c2)ncc1-c1cccc(/C=C/C(=O)O)c1` [Example 299]: the inhibition at 13 µM stood at 98.7%. The result for `COc1ncc(-c2cnc(Nc3ccc(F)c(Cl)c3)nc2NCCc2c[nH]cn2)cn1` [Example 462, N^2-(3-chloro-4-fluorophenyl)-N^4-[2-(1H-imidazol-4-yl)ethyl]-2′-methoxy-5,5′-bipyrimidine-2,4-diamine] reads 85%; that for `CN(C)CCCNc1nc(Nc2ccc(F)c(Cl)c2)ncc1-c1cccnc1` [Example 23, N^2-(3-chloro-4-fluorophenyl)-N^4-[3-(dimethylamino)propyl]-5-pyridin-3-ylpyrimidin-2,4-diamine], 95.8%.

Consider `Cc1cc(C(F)(F)F)nn1-c1nc(Nc2cccc(F)c2)ncc1-c1cncc(C(=O)O)c1` [Example 642, 5-{2-[(3-fluorophenyl)amino]-4-[5-methyl-3-(trifluoromethyl)-1H-pyrazol-1-yl]pyrimidin-5-yl}pyridine-3-carboxylic acid], for which the inhibition at 13 µM was 100%. Under `COCCn1cc(-c2cnc(Nc3cc(OC)cc(OC)c3)nc2-n2ccc(C(F)(F)F)n2)cc(C(=O)O)c1=O` [Example 1159] stands 100%; under `CN(C)C(=O)c1cccc(-c2cnc(Nc3ccc(F)c(Cl)c3)nc2-n2ccc(C(F)(F)F)n2)c1` [Example 1148, 3-(2-(3-chloro-4-fluorophenylamino)-4-(3-(trifluoromethyl)-1H-pyrazol-1-yl)pyrimidin-5-yl)-N,N-dimethylbenzamide], 24%. The result for `CC(C)(C)OC(=O)NCCNc1nc(Nc2ccc(F)c(Cl)c2)ncc1-c1cncc(C(=O)O)c1` [Example 225, 5-[4-(2-tert-Butoxycarbonylamino-ethylamino)-2-(3-chloro-4-fluoro-phenylamino)-pyrimidin-5-yl]-nicotinic acid] reads 81.1%; that for `CC(C)OCCNc1nc(Nc2ccc(F)c(Cl)c2)ncc1-c1cncc(C(=O)O)c1` [Example 236, 5-[2-[(3-chloro-4-fluorophenyl)amino]-4-(2-propan-2-yloxyethyolamino)pyrimidin-5-yl]pyridine-3-carboxylic acid], 73.6%. Under `COC1CCN(c2nc(Nc3ccc(F)c(Cl)c3)ncc2-c2cncnc2)CC1` [Example 65, N-(3-chloro-4-fluorophenyl)-4-(4-methoxypiperidin-1-yl)-5-pyrimidin-5-ylpyrimidin-2-amine] stands 75.9%; under `NC(=O)c1cncc(-c2cnc(Nc3ccc(F)c(Cl)c3)nc2-n2ccc(C(F)(F)F)n2)c1` [Example 1124, 5-[2-[(3-chloro-4-fluorophenyl)amino]-4-[3-(trifluoromethyl)pyrazol-1-yl]pyrimidin-5-yl]pyridine-3-carboxamide], 42%; under `CCOC(=O)/C=C/c1cccc(-c2cnc(Nc3ccc(F)c(Cl)c3)nc2NCCCNC(=O)c2cnc(C)cn2)c1` [Example 165], 56.9%.

Consider `COc1ncc(-c2cnc(Nc3ccc(F)c(Cl)c3)nc2-n2nc(C(F)(F)F)cc2C)cc1C(=O)O` [Example 1067, 5-(2-(3-chloro-4-fluorophenylamino)-4-(5-methyl-3-(trifluoromethyl)-1H-pyrazol-1-yl)pyrimidin-5-yl)-2-methoxynicotinic acid], for which the inhibition at 13 µM came to 98%. The result for `Fc1ccc(Nc2ncc(-c3cncnc3)c(NCCN3CCOCC3)n2)cc1Cl` [Example 43, N^2-(3-chloro-4-fluorophenyl)-N^4-(2-morpholin-4-ylethyl)-5-pyrimidin-5-ylpyrimidine-2,4-diamine] reads 74.3%. Regarding `Cc1cc(C(F)(F)F)nn1-c1nc(Nc2ccc(F)c(Cl)c2)ncc1-c1cc(C(=O)NS(C)(=O)=O)c(=O)n(C)c1` [Example 1049, 5-(2-(3-Chloro-4-fluorophenylamino)-4-(5-methyl-3-(trifluoromethyl)-1H-pyrazol-1-yl)pyrimidin-5-yl)-1-methyl-N-(methylsulfonyl)-2-oxo-1,2-dihydropyridine-3-carboxamide], the inhibition at 13 µM came to 99%. Under `O=C(O)c1cncc(-c2cnc(Nc3ccc4c(c3)OCO4)nc2-n2ccc(C(F)(F)F)n2)c1` [Example 670, 5-{2-(1,3-benzodioxol-5-ylamino)-4-[3-(trifluoromethyl)-1H-pyrazol-1-yl]pyrimidin-5-yl}pyridine-3-carboxylic acid] stands 100%; under `CONC(=O)c1cncc(-c2cnc(Nc3ccc(F)c(Cl)c3)nc2-n2cc(-c3ccncn3)cn2)c1` [Example 551, 5-{2-[(3-chloro-4-fluorophenyl)amino]-4-[4-(pyrimidin-4-yl)-1H-pyrazol-1-yl]pyrimidin-5-yl}-N-methoxypyridine-3-carboxamide], 100%. Regarding `Cc1cccc(Nc2ncc(-c3cncc(C(=O)O)c3)c(-n3nc(C(F)(F)F)cc3C)n2)c1` [Example 711, 5-{2-[(3-methylphenyl)amino]-4-[5-methyl-3-(trifluoromethyl)-1H-pyrazol-1-yl]pyrimidin-5-yl}pyridine-3-carboxylic acid], the inhibition at 13 µM worked out at 100%. The result for `COc1ncc(-c2cnc(Nc3cc(C)cc(Cl)c3)nc2-n2nc(C(F)(F)F)cc2C)cc1C(=O)O` [Example 802, 5-{2-[(3-chloro-5-methylphenyl)amino]-4-[5-methyl-3-(trifluoromethyl)-1H-pyrazol-1-yl]pyrimidin-5-yl}-2-methoxypyridine-3-carboxylic acid] reads 100%; that for `Cc1cc(C(F)(F)F)nn1-c1nc(Nc2ccc(F)c(Cl)c2)ncc1-c1cnc(OCCO)c(C(=O)O)c1` [Example 1134, 5-(2-(3-chloro-4-fluorophenylamino)-4-(5-methyl-3-(trifluoromethyl)-1H-pyrazol-1-yl)pyrimidin-5-yl)-2-(2-hydroxyethoxy)nicotinic acid], 100%; that for `COc1cc(Nc2ncc(-c3cnc(OC)c(-c4n[nH]c(=O)o4)c3)c(-n3ccc(C(F)(F)F)n3)n2)cc(OC)c1` [Example 807, 5-(5-{2-[(3,5-dimethoxyphenyl)amino]-4-[3-(trifluoromethyl)-1H-pyrazol-1-yl]pyrimidin-5-yl}-2-methoxypyridin-3-yl)-1,3,4-oxadiazol-2(3H)-one], 100%. Under `O=C(O)c1cncc(-c2cnc(Nc3ccc(F)c(Cl)c3)nc2-n2cccc2)c1` [Example 311, 5-{2-[(3-chloro-4-fluorophenyl)amino]-4-(1H-pyrrol-1-yl)pyrimidin-5-yl}pyridine-3-carboxylic acid] stands 81.8%.

`CC(C)N1CCN(CCn2cc(-c3cnc(Nc4ccc(F)c(Cl)c4)nc3-n3ccc(C(F)(F)F)n3)cc(C(=O)O)c2=O)CC1` [Example 1089, 5-(2-(3-chloro-4-fluorophenylamino)-4-(3-(trifluoromethyl)-1H-pyrazol-1-yl)pyrimidin-5-yl)-1-(2-(4-isopropylpiperazin-1-yl)ethyl)-2-oxo-1,2-dihydropyridine-3-carboxylic acid]: the inhibition at 13 µM came out at 100%. Under `CN(C)CCCNc1nc(Nc2ccc(F)c(Cl)c2)ncc1-c1cncc(C#N)c1` [Example 15, 5-{2-(3-chloro-4-fluorophenylamino)-4-[3-(dimethylamino)propylamino]pyrimidin-5-yl}nicotinitrile] stands 100%.
